According to ChEMBL document CHEMBL1158251, “Determination of oenothein B as the active 5-alpha-reductase-inhibiting principle of the folk medicine Epilobium parviflorum” (J Nat Prod, 1996):
pIC50: −log10 of the molar value.

Experiment: Inhibition of 5alpha reductase from human prostatic hyperplasia

Row | pIC50 | Structure (SMILES)
1 | 8.00 | CC(C)(C)NC(=O)[C@H]1CC[C@H]2[C@@H]3CC[C@H]4NC(=O)C=C[C@]4(C)[C@H]3CC[C@]12C [FINASTERIDE]
2 | 4.66 | O=C(O[C@H]1[C@@H]2OC(=O)c3cc(O)c(O)c(O)c3-c3c4cc(c(O)c3O)Oc3c(cc(O)c(O)c3O)C(=O)O[C@H]3C(O)O[C@@H]5COC(=O)c6cc(O)c(O)c(O)c6-c6c(cc(c(O)c6O)Oc6c(cc(O)c(O)c6O)C(=O)O[C@H]1C(O)O[C@@H]2COC4=O)C(=O)O[C@H]5[C@@H]3OC(=O)c1cc(O)c(O)c(O)c1)c1cc(O)c(O)c(O)c1 (some centres not stated) [OENOTHEIN B]
